In US6916797B2, “α-arylethylpiperazine derivatives as neurokinin antagonists” (UCB, S.A., priority 2000, dated 2005):

Assays:
[1] = after oral administration; cited from earlier work
NK1 receptors [2] = biological target: T1, NK1 receptors (Homo sapiens, UniProt P25103); details: cited from earlier work
[3] = test system: verapamil-sensitive L-type Ca2+ binding site; details: cited from earlier work
[4] = in vivo; cited from earlier work
[5] = test system: verapamil binding site of the L-type calcium channel; assay: Inhibition of [3H]D888 binding to the verapamil binding site of the L-type calcium channel (rat cerebral cortex membranes); details: 10 μmol/l of test substance
[6] = test system: isolated rat aorta contracted by 100 mM KCl; assay: Effect of compound on isolated rat aorta contracted by 100 mM KCl; details: 10^−5 M; contraction by 100 mM KCl
Procedure: Rat thoracic aorta depolarized by 100 mM KCl develops a contraction induced by an influx of Ca^2+ into the smooth muscle cell. An inhibition of this contraction could predict a Ca^2+ antagonist activity.
The method was adapted from Polster P. et al., J. Pharmacol. Exp. Ther. (1990), 255, 593: rings of thoracic aorta were prepared from male Wistar rats (250-400 g) and mounted under an optimal resting tension of 2 g in 10 ml organ baths containing modified Krebs' solution (NaCl 112 mM, NaHCO3 25 mM, KCl 5 mM, MgSO4 1.2 mM, CaCl2 2.5 mM, KH2PO4 1 mM and glucose 11.5 mM, pH 7.4). The bathing solution was maintained at a temperature of 37° C. and gassed with 95% O2 and 5% CO2. Isometric contractions were measured with a force transducer connected to an amplifier. A computer system was used to control data acquisition and fluid circulation through electrovalves. Drugs were manually injected into the bath.
Each ring was allowed to equilibrate for 60 min in the modified Krebs' solution. […] After obtaining two reproducible control contractions, a 3rd contraction was induced and the test compound was added to the bathing medium for 2 hours. Only preparation in which the contractions were matched were used. Each tissue received only one concentration of the test compound. Appropriate control experiments were conducted in order to test the effect of the solvant.
To normalize data, the change in tension due to the drug was compared to the change of tension due to the solvant and expressed as percentage of the induced relaxation of the initial contraction. Raw data were processed by a computer system and the pD′2 value was calculated following the method of Van Rossum J. M. et al., Arch. Int. Pharmacodyn. Ther. (1963), 143, 299.

NK1 receptors [7] = biological target: T1, NK1 receptors; assay: Binding of [4,5-3H-Leu10] substance P to human recombinant NK1 receptors expressed in CHO cell membranes; parameters: host or cells: CHO cells; details: pIC50 = -log IC50, concentration inhibiting by 50% the specific binding of [4,5-3H] substance P; tested as the free base/salt given in c1

T1 sequence (P25103 whole entry): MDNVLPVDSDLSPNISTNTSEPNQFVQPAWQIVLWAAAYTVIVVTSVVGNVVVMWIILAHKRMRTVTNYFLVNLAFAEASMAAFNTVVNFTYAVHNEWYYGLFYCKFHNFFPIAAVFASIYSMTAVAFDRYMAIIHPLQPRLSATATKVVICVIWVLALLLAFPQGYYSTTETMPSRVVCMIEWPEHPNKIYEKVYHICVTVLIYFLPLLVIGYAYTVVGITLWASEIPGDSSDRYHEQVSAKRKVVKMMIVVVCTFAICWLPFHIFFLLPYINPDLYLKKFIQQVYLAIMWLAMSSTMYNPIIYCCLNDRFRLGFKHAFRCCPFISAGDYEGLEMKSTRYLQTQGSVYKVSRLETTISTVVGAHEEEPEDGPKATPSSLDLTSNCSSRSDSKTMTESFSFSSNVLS

## COc1ccccc1[C@H](C)C(=O)N1C[C@@H]2[C@H](C1)C(c1ccccc1)(c1ccccc1)CC[C@@]2(O)c1ccccc1OC [RP-100,893]
[1]
  activity in clinical trials for the treatment of migraine: no better than placebo activity

## COc1ccccc1CC(=N)N1C[C@@H]2C(=O)CCC(c3ccccc3)(c3ccccc3)[C@@H]2C1 [RP-67,580]
NK1 receptors [2]
  NK1 affinity: some NK1 affinity

## COc1ccccc1CN[C@H]1CCCN[C@H]1c1ccccc1 [CP-99,994]
NK1 receptors [2]
  selectivity for NK1 receptors with respect to NK2 and NK3 receptors: good NK1 selectivity
[3]
  affinity for / interaction with the verapamil-sensitive L-type Ca2+ binding site: lower interaction
[4]
  outcome of first phase II clinical trials for asthma: unsuccessful

## COc1ccccc1CN[C@H]1C2CCN(CC2)[C@H]1C(c1ccccc1)c1ccccc1 [CP-96,345]
NK1 receptors [2]
  selectivity for NK1 receptors with respect to NK2 and NK3 receptors: good selectivity
[3]
  affinity for / interaction with the verapamil-sensitive L-type Ca2+ binding site: significant affinity

## FC(F)(F)c1cc(COCC(c2ccccc2)N2CCN(CCCCc3nnn[nH]3)CC2)cc(C(F)(F)F)c1 (stereo not shown) [Compound 297]
[5]
  % inhibition of [3H]D888 binding to the verapamil binding site of the L-type calcium channel: + (+: inhibition comprised between 20 and 50%)
[6]
  Result: effect of compound on isolated rat aorta contracted by 100 mM KCl: inactive à 10^−5 M
NK1 receptors [7]
  IC50: 20 nM
